According to patent publication US20250296938A1, “Compounds that Interact with the Ras Superfamily for the Treatment of Cancers, Inflammatory Diseases, Rasopathies, and Fibrotic Disease” (SHY Therapeutics, LLC, priority 2018, published 2025):
Read-outs that look alike come from different tables or passages of the source.

Legend:
Experiment in all cases: Ras GTP binding domain inhibition assay (Cy3-GTP/Cy5-GTP competition)
[1] = system: KRas G12C mutant; set-up: species or system human; details: 20 μM; for KRas G12C mutant + SOS: % inh.: with SOS; for KRas G12C mutant: % inh.: without SOS
How it was run: (§1)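 Ni-plate immobilised His-Ras, overnight 4 °C; cpd 20 μM (or dilution series for IC50), 1% DMSO, 3 h RT; optional His-Sos […] last hour; Cy3- or Cy5-GTP 100 nM, 45 min RT; 3× wash; bound fluorescence read.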

[2] = system: KRas Q61H mutant; set-up: species or system human; details: 20 μM; for KRas Q61H mutant + SOS: % inh.: with SOS; for KRas Q61H mutant: % inh.: without SOS
How it was run: as §1

[3] = system: KRas wild type; set-up: species or system human; details: 20 μM; for KRas wild type + SOS: % inh.: with SOS; for KRas wild type: % inh.: without SOS
How it was run: as §1

[4] = target: T1, KRas G12D mutant (Homo sapiens, UniProt P01116, G12D); details: 20 μM
T1 construct: fused on or other part: His tag, used for capture on nickel-coated plates
How it was run: as §1

[5] = with SOS, read-out: KRas G-12D mutant + SOS: % inh.
[6] = without SOS, read-out: KRas G12D mutant: % inh.

Row | Structure (SMILES) | KRas G12C mutant + SOS: % inh. [1] | KRas G12C mutant: % inh. [1] | KRas Q61H mutant + SOS: % inh. [2] | KRas Q61H mutant: % inh. [2] | KRas wild type + SOS: % inh. [3] | KRas wild type: % inh. [3] | inhibition at 20 µM [4, 5] | inhibition at 20 µM [4, 6]
1 | COCC(C)Nc1nc(-c2nccn2C)nc2sc(-c3ccccc3Cl)c(-c3cscn3)c12 (centres unmarked) [drawing 854] | D (76-100% inhibition) | C (51-75% inhibition) | D (76-100% inhibition) | C (51-75% inhibition) | D (76-100% inhibition) | B (26-50% inhibition) | 51 to 75% | 51 to 75%
2 | COCC(C)Nc1nc(-c2nccn2C)nc2sc(-c3cccc(OC)c3)c(-c3cscn3)c12 (centres unmarked) [drawing 855] | D (76-100% inhibition) | B (26-50% inhibition) | D (76-100% inhibition) | C (51-75% inhibition) | D (76-100% inhibition) | B (26-50% inhibition) | 51 to 75% | 51 to 75%
3 | COC1CCN(c2nc(-c3nccn3C)nc3sc(-c4ccn(C)n4)c(-c4ccccc4)c23)CC1 [drawing 856] | C (51-75% inhibition) | B (26-50% inhibition) | C (51-75% inhibition) | B (26-50% inhibition) | B (26-50% inhibition) | 0 (0% inhibition) | 26 to 50% | 26 to 50%
4 | Cn1ccc(-c2sc3nc(-c4nccn4C)nc(N4CCC5(CCOC5)C4)c3c2-c2ccccc2)n1 (centres unmarked) [drawing 857] | B (26-50% inhibition) | A (1-25% inhibition) | B (26-50% inhibition) | B (26-50% inhibition) | A (1-25% inhibition) | A (1-25% inhibition) | 1 to 25% | 26 to 50%
5 | COCC1CCN(c2nc(-c3nccn3C)nc3sc(-c4ccn(C)n4)c(-c4ccccc4)c23)C1 (centres unmarked) [drawing 858] | C (51-75% inhibition) | B (26-50% inhibition) | D (76-100% inhibition) | C (51-75% inhibition) | C (51-75% inhibition) | 0 (0% inhibition) | 26 to 50% | 26 to 50%
6 | CO[C@@H]1CCC(Nc2nc(-c3nccn3C)nc3sc(-c4ccn(C)n4)c(-c4ccccc4)c23)C1 (some centres unmarked) [drawing 859] | C (51-75% inhibition) | A (1-25% inhibition) | C (51-75% inhibition) | B (26-50% inhibition) | C (51-75% inhibition) | A (1-25% inhibition) | 26 to 50% | 26 to 50%
7 | CO[C@H]1CCC(Nc2nc(-c3nccn3C)nc3sc(-c4ccn(C)n4)c(-c4ccccc4)c23)C1 (some centres unmarked) [drawing 860] | D (76-100% inhibition) | B (26-50% inhibition) | D (76-100% inhibition) | B (26-50% inhibition) | D (76-100% inhibition) | B (26-50% inhibition) | 51 to 75% | 26 to 50%
8 | Cn1ccc(-c2sc3nc(-c4nccn4C)nc(NCC4CCOC4)c3c2-c2ccccc2)n1 (centres unmarked) [drawing 861] | C (51-75% inhibition) | 0 (0% inhibition) | C (51-75% inhibition) | B (26-50% inhibition) | B (26-50% inhibition) | 0 (0% inhibition) | 1 to 25% | 26 to 50%
9 | Cn1ccc(-c2sc3nc(-c4nccn4C)nc(NC4CCOCC4)c3c2-c2ccccc2)n1 [drawing 862] | A (1-25% inhibition) | 0 (0% inhibition) | B (26-50% inhibition) | B (26-50% inhibition) | B (26-50% inhibition) | B (26-50% inhibition) | 1 to 25% | 1 to 25%
10 | COC1CCN(c2nc(-c3nccn3C)nc3sc(-c4ccn(C)n4)c(-c4ccccc4)c23)C1 (centres unmarked) [drawing 863] | B (26-50% inhibition) | A (1-25% inhibition) | C (51-75% inhibition) | B (26-50% inhibition) | B (26-50% inhibition) | A (1-25% inhibition) | 1 to 25% | 1 to 25%
11 | COCC(C)Nc1nc(-c2nccn2C)nc2sc(-c3ccn(C)n3)c(-c3ccccc3)c12 (centres unmarked) [drawing 864] | C (51-75% inhibition) | 0 (0% inhibition) | C (51-75% inhibition) | 0 (0% inhibition) | C (51-75% inhibition) | 0 (0% inhibition) | 26 to 50% | 1 to 25%
12 | COCCCN(C)c1nc(-c2nccn2C)nc2sc(-c3ccn(C)n3)c(-c3ccccc3)c12 [drawing 865] | B (26-50% inhibition) | A (1-25% inhibition) | B (26-50% inhibition) | A (1-25% inhibition) | B (26-50% inhibition) | A (1-25% inhibition) | 26 to 50% | 51 to 75%
13 | COCCCNc1nc(-c2nccn2C)nc2sc(-c3ccn(C)n3)c(-c3ccccc3)c12 [drawing 866] | B (26-50% inhibition) | A (1-25% inhibition) | B (26-50% inhibition) | B (26-50% inhibition) | C (51-75% inhibition) | C (51-75% inhibition) | 26 to 50% | 1 to 25%
14 | COc1cccc(-c2sc3nc(-c4nccn4C)nc(N4CCC(OC)C4)c3c2-c2cscn2)c1 (centres unmarked) [drawing 867] | D (76-100% inhibition) | 0 (0% inhibition) | D (76-100% inhibition) | A (1-25% inhibition) | D (76-100% inhibition) | A (1-25% inhibition) | 51 to 75% | 1 to 25%
15 | COc1ccc(-c2c(-c3ccn(C)n3)sc3nc(-c4nccn4C)nc(N4CCC(OC)C4)c23)cc1 (centres unmarked) [drawing 868] | A (1-25% inhibition) | 0 (0% inhibition) | B (26-50% inhibition) | A (1-25% inhibition) | A (1-25% inhibition) | 0 (0% inhibition) | 1 to 25% | 0%
16 | COCC(C)Nc1nc(-c2nccn2C)nc2sc(-c3ccn(C)n3)c(-c3ccc(OC)cc3)c12 (centres unmarked) [drawing 869] | A (1-25% inhibition) | 0 (0% inhibition) | A (1-25% inhibition) | A (1-25% inhibition) | A (1-25% inhibition) | A (1-25% inhibition) | 1 to 25% | 0%
